Assay results as given in US6583154B1, “Compounds and methods which modulate feeding behavior and related diseases” (Amgen Inc., priority 1998, dated 2003).
Counter-ions that a name gives are not always drawn.

Assays:
Long-Evans male rats [1] = experiment: Icv administration of compounds in food-deprived Long-Evans male rats, food intake; type: in vivo; settings: Long-Evans male rats food deprived for 16 hours; I.C.V. injection in DMSO, 20 μl; 4 hours post-injection; vehicle 8.69 ± 0.53; * significantly different from vehicle, p < 0.05
Procedure: Protocol for Icv Administration of Compounds in Food-Deprived Long-Evans Male Rats
(§1) Adult male Long-Evans rats (approx. 275 g) were obtained from Charles River Laboratories (Wilmington, MA) and given one week to acclimate to the animal facility. Animals were housed individually and given ad-lib access to food and water. After acclimation, animals were anesthetized (75 mg/kg Sodium Nembutal) and implanted with 23 g cannulas (Plastics One, Roanoke, VA) into the right lateral cerebral ventricle. All animals were given at least 1 week post-operative recover before any experiment.
Animals were food deprived for 16 hours prior to injections. Intracerebroventricular injection of compounds was done in awake, unrestrained animals in a DMSO vehicle in a volume of 20 μl. Immediately following the injection, the animals were returned to their home cage and were provided with a pre-weighed portion of regular rat chow pellets. Total food consumed was measured at 2 and 4 hours post-injection.

pNPY induced feeding = experiment: Icv administration of NPY antagonists against pNPY induced feeding in satiated Long-Evans male rats; type: in vivo; settings: I.C.V. antagonist in DMSO 20 μl, about 15 min later 5 μl pNPY, high sucrose mash, 4 hours post-injection, vehicle 5.29 ± 0.97, * significantly different from vehicle, p < 0.05
Procedure: Protocol for Icv Administration of NPY Antagonists Against pNPY Induced Feeding in Satiated Long-Evans Male Rats
as §1
Approximately 16 hours prior to injection, animals were provided with access to 30 grams of a sucrose/condensed milk/rat chow mash along with their regular chow. Ninety minutes prior to injections, regular chow was removed from the cages and animals were provided with a fresh portion of the high sucrose mash. Intracerebroventricular injection of antagonist or vehicle was done in awake, unrestrained animals in a DMSO vehicle in a volume of 20 μl. Approximately 15 minutes after the administration of the antagonist or vehicle, animals were given a second 5 μl injection of either water or pNPY. After the second injection, the portion of high sucrose mash was weighed and total food consumed was measured at 2 and 4 hours post-injection.

Long-Evans male rats [2] = experiment: IP administration of compounds in fasted Long-Evans male rats, 2 hr food intake; type: in vivo; settings: Rattus norvegicus; male Long Evans rats fasted 18-20 hr; 30 mg/kg (ip) in 2% tween; food given after 30 min, weighed 2 hr later; vs vehicle; read-out: inhibition of feeding (2 hr food intake)
Procedure: Protocol for IP Administration of Compounds in Fasted Long-Evans Male Rats
Male Long Evans rats (85-100 g)were obtained from Harlan (Indianapolis, Ind.) and were given at least a one week acclimation period to Ambients animal care facilities. Animals were individually housed and were provided ad libitum food and water. For testing, rats were fasted for 18-20 hr (overnight) prior to the start of the experiment. On the test day, test compounds or vehicle was administered via the intraperitoneal (i.p.) route of administration. Test compounds were suspended in a 2% tween solution; the 2% tween solution was used as the vehicle treatment (control group). Group sizes for each treatment were 6-8 animals. After 30 min, premeasured food was placed into the cages. Two hours later, the food was weighed again. The difference between 2 hr weight and the premeasured weight was taken as 2 hr food intake.

Male BALB-C mice = experiment: IP administration of compounds in fasted male BALB-C mice, 2 hr food intake; type: in vivo; settings: Mus musculus; male BALB-C mice fasted 18-20 hr; 30 mg/kg (ip) in 2% tween; food given after 30 min, weighed 2 hr later; vs vehicle; read-out: inhibition of feeding (2 hr food intake)
Source text: Protocol For IP Administration Of Compounds In Male BALB-C Mice.
Male BALB-C mice (20-25 g)were obtained from Charles Rivers (Wilmington, Mass.) and were given at least a one week acclimation period to Amgen's animal care facilities. Animals were housed 10/cage and were provided ad libitum food and water. For testing, mice were fasted for 18-20 hr (overnight) prior to the start of the experiment. On the day of the experiment, mice were removed from group housing and placed into individual cages (without food). Test compounds or vehicle was then administered via the intraperitoneal (i.p.) route of administration. Test compounds were suspended in a 2% tween solution; the 2% tween solution was used as the vehicle treatment (control group). Group sizes for each treatment were 6-8 animals. After 30 min, premeasured food was placed into the cages. Two hours later, the food was weighed again. The difference between 2 hr weight and the premeasured weight was taken as 2 hr food intake.

OB/OB female mice = experiment: Icv administration of compounds in ad-lib fed OB/OB female mice, food intake; type: in vivo; settings: I.C.V. injection in 100% DMSO, 5 μl, 4 hours post-injection, vehicle 0.61 ± 0.10, * significantly different from vehicle, p < 0.05
Source text: Protocol For Icv Administration of Compounds In Ad-Lib Fed OB/OB Female Mice.
Eight week old (approx. 50 g) OB/OB female mice were obtained from Jackson Laboratories (Bar Harbor, ME) and given one week to acclimate to the animal facility before the experiment. Animals were housed 10 per cage and were provided with food and water ad-lib. Immediately prior to injection, animals were removed from group housing and lightly anesthetized using 4% isofluorane vapor. Freehand intracerebroventricular (“icv”) injection of compounds was done in a 100% DMSO vehicle in a volume of 5 μl. Immediately following the injection, animals were placed in individual cages and were provided with a pre-weighed portion of regular chow pellets. Total amount of food consumed was measured at 1, 2, 4 and 24 hours post-injection.

SMILES | melting point | 4 hr food intake (g ± S.E.M.) (Long-Evans male rats [1]) | 4 hr food intake (g ± S.E.M.) (pNPY induced feeding) | inhibition in vivo at 30 mg/kg (Long-Evans male rats [2]) [%] | inhibition in vivo at 30 mg/kg (Male BALB-C mice) [%] | 4 hr food intake (g ± S.E.M.) (OB/OB female mice)
CCN(CC)c1nc(C)nc2cc(-c3ccccc3)[nH]c12 [Example 1f, Diethyl(2-methyl-6-phenylpyrrolo[2,3-e]pyrimidin-4-yl)amine] | 184 to 185 °C | 5.13 ± 1.40* g | – | – | – | –
Cc1nc(N2CCc3ccccc3C2)c2[nH]c(-c3ccccc3)cc2n1 [Example 2] | 251 to 253 °C (dec.) | – | 3.35 ± 0.62* g | – | – | –
Cc1nc(N2CCCCC2)c2[nH]c(-c3ccccc3)cc2n1 [Example 35, 2-methyl-6-phenyl-4-(piperidinyl)pyrrolo[3,2-d]pyrimidine] | – | – | – | ≥ 10 | ≥ 10 | 0.29 ± 0.11* g
Cl.c1ccc(-c2cc3nc(C4CC4)nc(N4CCCCC4)c3[nH]2)cc1 [Example 69c, 2-Cyclopropyl-6-phenyl-4-piperidylpyrrolo[3,2-d]pyrimidine Hydrochloride] | 285.4 to 286 °C (dec.) | – | – | ≥ 10 | ≥ 10 | –
Cc1nc(N2CCCCC2)c2[nH]c(-c3cccs3)cc2n1.Cl [Example 76c, 2-(2-Methyl-4-piperidylpyrrolo[4,5-d]pyrimidin-6-yl)thiophene Hydrochloride] | > 280 °C | – | – | ≥ 10 | ≥ 10 | –
CCc1nc(N2CCCCC2)c2oc(-c3ccc(Cl)cc3)cc2n1 [Example 96, 6-(4-Chlorophenyl)-2-ethyl-4-piperidinylfurano[3,2-d]pyrimidine] | > 288 °C | – | – | ≥ 10 | ≥ 10 | –
Cc1nc(N2CCCCC2)c2[nH]c(-c3cc(C(F)(F)F)cc(C(F)(F)F)c3)cc2n1.Cl [Example 122, 6-((3,5-bis(Trifluoromethyl)phenyl)-2-methyl-4-piperidylpyrrolo[3,2-d]pyrimidine Hydrochloride] | – | – | – | ≥ 10 | ≥ 10 | –
Cc1nc(N2CCCCC2)c2[nH]c(-c3ccc(SC(F)(F)F)cc3)cc2n1 [Example 123, Trifluoro[4-(2-methyl-4-piperidylpyrrolo[4,5-d]pyrimidin-6-yl)phenylthio]methane Hydrochloride Monohydrate] | – | – | – | ≥ 10 | ≥ 10 | –
Cc1nc(N2CCCCC2)c2[nH]c(-c3ccc(C)c(C)c3)cc2n1 [Example 124, 6-(3,4-Dimethylphenyl)-2-methyl-4-piperidylpyrrolo[3,2-d]pyrimidine Hydrochloride Hydrate] | – | – | – | ≥ 10 | ≥ 10 | –
Cc1nc(NC[C@H]2CC[C@H](CNS(=O)(=O)c3cccc4ccccc34)CC2)c2[nH]c(-c3ccccc3)cc2n1 [Example 194, trans-[(4-{[(2-Methyl-6-phenylpyrrolo[2,3-e]pyrimidin-4-yl)amino]methyl}cyclohexyl)methyl](naphthylsulfonyl)amine Hydrochloride Hydrate] | – | – | – | ≥ 10 | ≥ 10 | –
Cc1nc(N2CCCCC2)c2[nH]c(-c3ccc(OC(F)(F)F)cc3)cc2n1 [Example 195d, Trifluoro[4-(2-methyl-4-piperidylpyrrolo[4,5-d]pyrimidin-6-yl)phenoxylmethane Hydrochloride Monohydrate] | – | – | – | ≥ 10 | ≥ 10 | –
CCCc1nc(N2CCCCC2)c2[nH]c(-c3ccccc3)cc2n1 [Example 196c, 6-Phenyl-4-piperidyl-2-propylpyrrolo[3,2-d]pyrimidine Hydrochloride Monohydrate] | – | – | – | ≥ 10 | ≥ 10 | –
Cc1nc(N2CC=CC2)c2[nH]c(-c3cccc(C(F)(F)F)c3)cc2n1 [Example 197d, 2-Methyl-4-(3-pyrrolinyl)-6-[3-(trifluoromethyl)phenyl]pyrrolo[3,2-d]pyrimidine Hydrochloride Monohydrate] | – | – | – | ≥ 10 | ≥ 10 | –
Cc1nc(N2CC=CC2)c2[nH]c(-c3cccc(Cl)c3)cc2n1 [Example 198, 6-(3-Chlorophenyl)-2-methyl-4-(3-pyrrolinyl)pyrrolo[3,2-d]pyrimidine Hydrochloride Hydrate] | – | – | – | ≥ 10 | ≥ 10 | –
Cc1nc(N2CCCCC2)c2sc(-c3ccc(F)cc3)cc2n1 [Example 217, 6-(4-Fluorophenyl)-2-methyl-4-piperidylthiopheno[3,2-d]pyrimidine Hydrochloride Hydrate] | – | – | – | ≥ 10 | ≥ 10 | –
